Measured values as given in patent publication US4020111A, “Propynyloxy alkyl arene insecticides” (priority 1975, dated 1977).

How the values were obtained:
mice [1] = assay: extension of Secobarbital sleeping time by synergists; type: in vivo, Swiss albino white male mice; details: Secobarbital 37 mg/K; for Relative Sleeping Time: treated/control
Method in brief: (§1)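 Swiss albino male mice (~38 days, 25-30 g) given synergist at 74.0 or 110.0 mg/kg in corn oil 1 h before Secobarbital 37.0 mg/kg or Noludar 110.0 mg/kg in water. Sleeping time measured from drug dosing to righting-reflex recovery; relative sleeping time = treated ÷ drug-only control.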

mice [2] = assay: synergism of acute toxicity of Dimetilan, GS 13005, Secobarbital and Methadone (intraperitoneal); type: in vivo, Swiss albino white male mice; details: 48 hours, of eight mice
Method in brief: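 Male Swiss albino mice (5–6 weeks, 23–27 g), eight per dose; synergist in corn oil given i.p. 1 h before i.p. insecticide or drug (drugs in distilled water). Lethality recorded over at least 6 h; controls received corn oil plus agent alone.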

mice [3] = assay: extension of Noludar sleeping time by synergists; type: in vivo, Swiss albino white male mice; details: Noludar 110 mg/K, synergist 110 mg/K
Method in brief: as §1

CH strain flies = assay: spray application of pyrethrum, average percent knockdown with time; type: in vivo, housefly (CH strain); details: pyrethrum 100 + synergist 100 mg/cc
Procedure: The average percent knockdown of CH strain flies, as a function of time, resulting from spray application of pyrethrum, alone and with synergists, are given in Table XXXXIII. Duplicate tests were performed using 50 CH strain houseflies per test. Test solutions of 100 mg and 200mg of pyrethrum per cc of acetone, 200 mg of synergist per cc of acetone, and a mixture of 100 mg of pyrethrum and 100 mg of synergist per cc of acetone were prepared. The fifty CH strain houseflies were put in a 40 liter spray chamber and 1 cc of the test solution was sprayed into the test chamber with a spray pistol. The synergists alone at 200 mg/cc caused no knockdown.

houseflies = assay: percent kill with Diazinon, Table XXVII (strain not given); type: in vivo, housefly; details: Diazinon 5 + synergist 10 μg/fly, 1440 min
[4] = test system: polyvalent resistant (CH strain) houseflies; assay: whole plant or invertebrate; type: in vivo, housefly (CH strain); details: CH strain

C#CCON=Cc1cccc2ccccc12 [I-I]
Mean Sleeping Time (mice [1]; synergist 74 mg/K): 31 min | Relative Sleeping Time (mice [1]; synergist 74 mg/K): 1.1 | Mean Sleeping Time (mice [1]; synergist 110 mg/K): 102 min | Relative Sleeping Time (mice [1]; synergist 110 mg/K): 1.7 | number of mice dead (mice [2]; Dimetilan 8 mg/kg + synergist 80 mg/kg ip): 0 | number of mice dead (mice [2]; Dimetilan 8 mg/kg + synergist 240 mg/kg ip): 3 | Mean Sleeping Time (mice [3]): 62 min | Relative Sleeping Time (mice [3]; treated/control): 2.1 | average percent knockdown (CH strain flies; 5 min): 4% | average percent knockdown (CH strain flies; 10 min): 7% | average percent knockdown (CH strain flies; 15 min): 19% | average percent knockdown (CH strain flies; 20 min): 29% | average percent knockdown (CH strain flies; 25 min): 40% | average percent knockdown (CH strain flies; 30 min): 49% | average percent knockdown (CH strain flies; 40 min): 57% | average percent knockdown (CH strain flies; 50 min): 86% | average percent knockdown (CH strain flies; 60 min): 92% | percent kill (houseflies): 55% | percent kill after 24 hours ([4]; GS 13005 1 + synergist 2 μg/fly): 47% | percent kill after 24 hours ([4]; Pyrethrum 2 + synergist 4 μg/fly): 52%
